Common to all, as to experiment: BRET assay using TRUPATH biosensors, Gi activation of ADGRF1
Type in all cases: cell-based
On the technique in general: Bioluminescence resonance energy transfer reports proximity on the nanometre scale.

Assay [1] addresses T1, ADGRF1 (Homo sapiens, UniProt Q5T601, Q830A).
T1 construct: Flag (N); expressed in transfected cells; host or cells: HEK293F
To be noted: ADGRF1 Q830^7.49bA. A digest of the protocol: (§1)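 HEK293F cells transiently co-transfected with wild-type or mutant receptor, Gα-RLuc8 (GαsS for Gs, Gαi1 for Gi), Gβ3 and Gγ9-GFP2 at 2:1:1:1. After 30 min at 37 °C and coelenterazine 400a, cells stimulated with synthetic stalk peptide. BRET = GFP2/RLuc8 emission, last of five readings.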

The target in assay [2] is T2, ADGRF1 (Homo sapiens, UniProt Q5T601, L682A).
T2 construct: Flag (N); expressed in transfected cells; host or cells: HEK293F
The settings on record: ADGRF1 L682^3.54bA. In short, it runs like this:
as §1

The target of assay [3] is T3, ADGRF1 (Homo sapiens, UniProt Q5T601, M627A).
T3 construct: Flag (N); expressed in transfected cells; host or cells: HEK293F
The settings on record: ADGRF1 M627^2.50bA. In short, it runs like this: as §1

The target of assay [4] is T4, ADGRF1 (Homo sapiens, UniProt Q5T601, Y684A).
T4 construct: Flag (N); expressed in transfected cells; host or cells: HEK293F
The settings on record: ADGRF1 Y684^3.56bA. A digest of the protocol: as §1

The target in assay [5] is T5, ADGRF1 (Homo sapiens, UniProt Q5T601, F690A).
T5 construct: Flag (N); expressed in transfected cells; host or cells: HEK293F
T5 sequence (Q5T601 20-910 F690A): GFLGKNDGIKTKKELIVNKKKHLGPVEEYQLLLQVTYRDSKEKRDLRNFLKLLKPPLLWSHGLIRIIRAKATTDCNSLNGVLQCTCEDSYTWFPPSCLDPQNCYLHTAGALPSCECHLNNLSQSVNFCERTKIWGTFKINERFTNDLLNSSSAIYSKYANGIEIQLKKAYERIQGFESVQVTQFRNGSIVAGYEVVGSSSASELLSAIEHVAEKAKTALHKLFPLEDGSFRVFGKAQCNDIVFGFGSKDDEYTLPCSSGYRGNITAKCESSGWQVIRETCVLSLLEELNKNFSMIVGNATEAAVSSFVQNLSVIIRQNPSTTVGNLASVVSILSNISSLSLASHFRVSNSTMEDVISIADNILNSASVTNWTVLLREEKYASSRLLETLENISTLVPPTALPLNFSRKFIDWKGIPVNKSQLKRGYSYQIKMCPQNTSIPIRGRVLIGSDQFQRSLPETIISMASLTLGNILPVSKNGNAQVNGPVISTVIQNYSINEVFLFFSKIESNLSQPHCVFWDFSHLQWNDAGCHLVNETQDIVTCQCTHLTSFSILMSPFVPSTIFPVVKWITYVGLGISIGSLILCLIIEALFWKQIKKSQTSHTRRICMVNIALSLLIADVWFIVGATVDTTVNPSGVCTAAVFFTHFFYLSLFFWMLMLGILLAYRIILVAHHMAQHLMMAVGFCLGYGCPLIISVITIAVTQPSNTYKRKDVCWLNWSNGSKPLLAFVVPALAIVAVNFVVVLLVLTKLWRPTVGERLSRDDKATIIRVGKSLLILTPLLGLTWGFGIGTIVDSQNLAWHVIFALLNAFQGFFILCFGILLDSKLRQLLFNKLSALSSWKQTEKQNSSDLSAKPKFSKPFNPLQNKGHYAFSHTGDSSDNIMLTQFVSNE
The settings on record: ADGRF1 F690^ICL2A. In short, it runs like this: as §1

Assay [6] deals with T6, ADGRF1 (Homo sapiens, UniProt Q5T601, F747A).
T6 construct: Flag (N); expressed in transfected cells; host or cells: HEK293F
To be noted: ADGRF1 F747^5.36bA, n = 3. In short, it runs like this: as §1

For assay [7], the target named is T7, ADGRF1 (Homo sapiens, UniProt Q5T601, R623A).
T7 construct: Flag (N); expressed in transfected cells; host or cells: HEK293F
T7 sequence (Q5T601 20-910 R623A): T5 sequence (Q5T601 20-910 F690A) with R604A, A671F
To be noted: ADGRF1 R623^2.46bA. A digest of the protocol:
as §1

Where [8] appears, read: n = 3, read-out: pEC50 (mean ± s.e.m.) (converted).

Positions count from the first letter of the chain named. pEC50: −log10 of the molar value. Ends that are not written are not given here.

T1 sequence (Q5T601 20-910 Q830A): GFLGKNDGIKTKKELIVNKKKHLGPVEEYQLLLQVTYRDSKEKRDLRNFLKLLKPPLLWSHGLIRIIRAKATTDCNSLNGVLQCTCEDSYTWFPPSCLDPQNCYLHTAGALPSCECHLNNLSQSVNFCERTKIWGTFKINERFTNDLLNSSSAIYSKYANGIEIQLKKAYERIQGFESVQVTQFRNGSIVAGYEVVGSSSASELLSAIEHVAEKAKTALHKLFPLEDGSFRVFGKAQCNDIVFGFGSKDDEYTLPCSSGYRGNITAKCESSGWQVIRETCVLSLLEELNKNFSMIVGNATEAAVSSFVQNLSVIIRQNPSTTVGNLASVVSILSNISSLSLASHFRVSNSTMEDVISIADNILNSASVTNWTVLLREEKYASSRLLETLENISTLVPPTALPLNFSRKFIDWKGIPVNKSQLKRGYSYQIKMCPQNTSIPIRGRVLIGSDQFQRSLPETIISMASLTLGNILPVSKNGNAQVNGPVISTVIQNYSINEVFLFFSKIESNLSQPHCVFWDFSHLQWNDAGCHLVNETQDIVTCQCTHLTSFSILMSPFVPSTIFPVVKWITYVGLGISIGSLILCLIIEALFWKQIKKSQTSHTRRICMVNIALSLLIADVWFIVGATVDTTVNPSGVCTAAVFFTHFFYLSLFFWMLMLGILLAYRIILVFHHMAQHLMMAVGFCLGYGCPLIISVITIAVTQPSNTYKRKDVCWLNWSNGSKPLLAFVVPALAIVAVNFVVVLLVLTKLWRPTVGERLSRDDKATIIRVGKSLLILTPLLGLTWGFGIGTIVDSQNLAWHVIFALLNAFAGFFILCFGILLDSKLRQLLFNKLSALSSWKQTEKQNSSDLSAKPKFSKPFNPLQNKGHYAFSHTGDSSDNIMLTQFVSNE
T4 sequence (Q5T601 20-910 Y684A): as the sequence (Q5T601 20-910 Q830A) above, with Y665A, A811Q counted along it
T3 sequence (Q5T601 20-910 M627A): as the sequence (Q5T601 20-910 Q830A) above, with M608A, A811Q counted along it
T6 sequence (Q5T601 20-910 F747A): as the sequence (Q5T601 20-910 Q830A) above, with F728A, A811Q counted along it
T2 sequence (Q5T601 20-910 L682A): as the sequence (Q5T601 20-910 Q830A) above, with L663A, A811Q counted along it

For the sequence TSFSILMSPFVP [pF1], the “Emax (mean ± s.e.m.)” value is reported as 124 ± 15 % of WT in assay [1] (n = 3); 79 ± 12 % of WT in assay [2] (n = 3); 113 ± 8 % of WT in assay [3] (n = 3); 115 ± 17 % of WT in assay [4] (n = 3); 94 ± 15 % of WT in assay [5] (n = 3); 80 ± 13 % of WT in assay [6]. Further, in assay [7] (n = 3), the “Emax (mean ± s.e.m.)” value is on record as 120 ± 8 % of WT. For the same sequence, the EC50 was 851 nM in assay [1] (setting [8]); 269 nM in assay [2] (setting [8]); 692 nM in assay [3] (setting [8]); 813 nM in assay [4] (setting [8]); 79.4 nM in assay [5] (setting [8]); 447 nM in assay [7] (setting [8]). Further, the pEC50 in assay [6] is 5.91.

What is called pEC50 is the EC50 on a negative log10 scale, so that one unit is a factor of ten. Low readings indicate a large EC50, high ones a small EC50.

(Values after publication PMC9046087, “Structural basis of tethered agonism of the adhesion GPCRs ADGRD1 and ADGRF1” (Nature, 2022).)
